Results: publication PMC10732398 (PLOS Pathogens, 2023)

Key:
[1] = system: ⍺4β7; assay: SPR: inhibition by linear peptides of soluble ⍺4β7 binding to a MAdCAM-Ig surface; conditions: Fig 7F, 7G
From the text: (§1) To determine if this is the case, we employed an SPR -based assay. Biosensor surfaces were coated with either CD4 D1D2 or a 42 aa cyclic V2 peptide derived from the subtype E 92TH023 gp120 (cV2 92TH023). A third surface coated with MAdCAM-Ig was employed as a positive control. Soluble ⍺4β7 was passed over these surfaces. We then evaluated the capacity of staggered 15 aa peptides that span either CD4 D2 or gp120 V2 to inhibit this interaction (Fig 7A).
(§2) Fig 7 Reciprocal inhibition of gp120 V2 and CD4 binding to ⍺4β7 by D2 and V2 peptides. SPR measurements of soluble ⍺4β7 (analyte) binding to biosensor surfaces coated with CD4 D1D2, 92TH023 cyclic peptide, or MAdCAM-Ig in the absence or presence of either CD4 D2 or gp120 V2 peptides, as indicated. (A) List of overlapping 15 aa peptides corresponding to residues 157–187 of CD4 and residues 158–192 of gp120 V2 (subtype B consensus sequence). (B) Binding of ⍺4β7 to sCD4 D1D2 +/- CD4 D2 peptides. X-axis indicates ⍺4β7 mass bound (RU) at the end of the association phase. (C) Binding of ⍺4β7 to 92TH023 +/- gp120 V2 peptides. (D) Binding of ⍺4β7 to sCD4 D1D2 +/- gp120 V2 peptides. (E) Binding of ⍺4β7 to 92TH023 +/- CD4 D2 peptides. […]
(§3) Experiments were performed using a Biacore 3000 instrument (Cytiva Life Sciences) using CM4 or CM5 sensor chips. The data were evaluated using BIAevaluation 4.1.1 software (Cytiva Life Sciences). […]

[2] = system: ⍺4β7; assay: SPR: inhibition by linear peptides of soluble ⍺4β7 binding to a gp120 V2 (cV2 92TH023) surface; conditions: Fig 7C, 7E
From the text: as §1, §2, §3

## QKKVEFKIDIVVLA [CD4 P42, linear CD4 D2 peptide, residues 165-178, G β-strand]
[1]
  inhibition of MAdCAM-Ig binding to ⍺4β7 (in words): inhibit MAdCAM-Ig binding to ⍺4β7
[2]
  inhibition of gp120 binding to ⍺4β7 (in words): inhibits gp120 binding to ⍺4β7
